# Reference: patent publication US9776972B2, “Pyrazole derivatives as arginine methyltransferase inhibitors and uses thereof” (priority 2013, dated 2017)
# Target: human PRMT3 (Homo sapiens, UniProt O60678)
# Assay: PRMT3 Biochemical Assay (3H-SAM Flashplate, peptide substrate)
# Conditions: single experiment or average of multiple experiments
# From the text: S-adenosylmethionine (SAM), S-adenosylhomocysteine (SAH), bicine, Tween20, dimethylsulfoxide (DMSO), bovine skin gelatin (BSG), isopropyl-β-D-thiogalactopyranoside (IPTG), and Tris(2-carboxyethyl)phosphine hydrochloride solution (TCEP) were purchased from Sigma-Aldrich at the highest level of purity possible. ^3H-SAM was purchase from American Radiolabeled Chemicals with a specific activity of 80 Ci/mmol. 384-well streptavidin Flashplates were purchased from PerkinElmer.
# Peptide containing the classic RMT substrate motif was synthesized with an N-terminal linker-affinity tag motif and a C-terminal amide cap by 21st Century Biochemicals. The peptide was purified by high-performance liquid chromatography (HPLC) to greater than 95% purity and confirmed by liquid chromatography mass spectrometry (LC-MS). The sequence was Biot-Ahx-[…]-amide (SEQ ID NO.:11).
# Full-length human PRMT3 (NM_005788.3) isoform 1 transcript clone was amplified from an HEK 293 cDNA library and subcloned into pGEX-KG (GE Life Sciences). The resulting construct encodes an N-terminal GST tag and a thrombin cleavage sequence ([…] […] […] […]) (SEQ ID NO.: 12) fused directly to Cys 2 of PRMT3.
# E. coli (BL21(DE3) Gold, Stratagene) made competent by the CaCl2 method were transformed with the PRMT3 construct and ampicillin selection. Protein over-expression was accomplished by growing the PRMT3 expressing E. coli clone and inducing expression with 0.3 mM IPTG at 16° C. The culture was grown for 12 hours, harvested by centrifugation, and stored at −80° C. for purification.
# GST-tagged PRMT3 was eluted with 50 mM Tris, 2 mM glutathione, pH 7.1 and 50 mM Tris, 20 mM glutathione, pH 7.1. Pooled fractions were dialysed in 20 mM Tris, 50 mM NaCl, 5% glycerol, 1 mM EDTA, 1 mM DTT, pH7.5 (Buffer B) and applied to a Q Sepharose Fast Flow column. GST-tagged PRMT3 was eluted by 500 mM NaCl in buffer B. Pooled fractions were dialyzed in 25 mM phosphate buffer, 100 mM NaCl, 5% glycerol, 2 mM DTT, pH 6.8 (Buffer C) and loaded on to a ceramic hydroxyapatite column. GST-tagged PRMT3 eluted with 25-400 mM phosphate in buffer C. Protein was concentrated and buffer was exchanged to 20 mM Tris, 150 mM NaCl, 5% glycerol, 5 mM β-mercaptoethanol, pH7.8 by ultrafiltration. The purity of recovered protein was 70%.
# General Procedure for PRMT3 Enzyme Assays on Peptide Substrates.
# The assays were all performed in a buffer consisting of 20 mM Bicine (pH=7.6), 1 mM TCEP, 0.005% BSG, and 0.002% Tween 20, prepared on the day of use. Compounds in 100% DMSO (1 ul) were spotted into a polypropylene 384-well V-bottom plates (Greiner) using a Platemate Plus outfitted with a 384-channel head (Thermo Scientific). DMSO (1 ul) was added to Columns 11, 12, 23, 24, rows A-H for the maximum signal control and 1 ul of SAH, a known product and inhibitor of PRMT3, was added to columns 11, 12, 23, 24, rows I-P for the minimum signal control. A cocktail (40 ul) containing the PRMT3 enzyme was added by Multidrop Combi (Thermo-Fisher). The compounds were allowed to incubate with PRMT3 for 30 min at room temperature, then a cocktail (10 ul) containing SAM and peptide was added to initiate the reaction (final volume=51 ul). The final concentrations of the components were as follows: PRMT3 was 0.5 nM, ^3H-SAM was 100 nM, non-radiolabeled SAM was 1.8 uM, peptide was 330 nM, SAH in the minimum signal control wells was 1 mM, and the DMSO concentration was 2%. The assays were stopped by the addition of potassium chloride (10 ul) to a final concentration of 100 mM. 50 ul of the reaction in the 384-well polypropylene plate was then transferred to a 384-well Flashplate and the biotinylated peptides were allowed to bind to the streptavidin surface for at least 1 hour before being washed once with 0.1% Tween20 in a Biotek ELx405 plate washer. […]
# Chain of human PRMT3 (O60678 with tags, fused parts or gaps): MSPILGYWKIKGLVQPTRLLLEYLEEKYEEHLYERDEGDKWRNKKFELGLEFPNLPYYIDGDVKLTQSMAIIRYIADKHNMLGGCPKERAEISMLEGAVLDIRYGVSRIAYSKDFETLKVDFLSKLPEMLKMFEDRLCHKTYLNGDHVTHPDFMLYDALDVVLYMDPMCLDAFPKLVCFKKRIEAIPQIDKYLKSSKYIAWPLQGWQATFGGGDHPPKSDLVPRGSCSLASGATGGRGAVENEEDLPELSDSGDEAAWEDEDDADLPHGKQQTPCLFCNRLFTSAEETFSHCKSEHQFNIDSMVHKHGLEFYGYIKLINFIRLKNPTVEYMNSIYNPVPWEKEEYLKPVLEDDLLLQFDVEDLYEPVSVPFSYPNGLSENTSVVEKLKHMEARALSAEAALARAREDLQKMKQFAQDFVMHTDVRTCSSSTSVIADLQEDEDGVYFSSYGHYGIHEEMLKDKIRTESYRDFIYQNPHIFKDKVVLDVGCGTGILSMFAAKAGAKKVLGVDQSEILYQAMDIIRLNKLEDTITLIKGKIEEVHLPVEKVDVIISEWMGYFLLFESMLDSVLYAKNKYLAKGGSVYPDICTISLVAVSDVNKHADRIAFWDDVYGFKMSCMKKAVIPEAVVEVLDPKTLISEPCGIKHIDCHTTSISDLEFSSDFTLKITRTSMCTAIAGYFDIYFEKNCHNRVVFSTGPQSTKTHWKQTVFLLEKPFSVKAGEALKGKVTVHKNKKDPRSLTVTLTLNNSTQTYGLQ
row,Compound,IC50 [µM]
1,CN(CCN)Cc1c[nH]nc1-c1cc(F)cc(F)c1 [Compound 111],5.39
2,COCCn1ncc(CN(C)CCN)c1-c1ccc(F)cc1 [Compound 6],> 50
3,COc1cccc(-c2n[nH]cc2CN(C)CCN)c1 [Compound 130],6.46
4,CN(CCN)Cc1c[nH]nc1-c1ccc(C(F)(F)F)c(F)c1 [Compound 141],3.47
5,CC(C)Oc1ccc(-c2n[nH]cc2CN(C)CCN)cc1F [Compound 97],3.5
6,CN(CCN)Cc1c[nH]nc1-c1ccccc1C#N [Compound 140],5.21
7,CC(=O)c1cccc(-c2n[nH]cc2CN(C)CCN)c1 [Compound 112],3.68
8,COc1ccc(-c2n[nH]cc2CN(C)CCN)cc1Cl [Compound 125],4.32
9,CN(CCN)Cc1c[nH]nc1-c1ccc(C2CC2)cc1 [Compound 116],2.78
10,Cc1c(F)cccc1-c1n[nH]cc1CN(C)CCN [Compound 129],9.91
11,COc1ccc(-c2n[nH]cc2CN(C)CCN)cc1F [Compound 134],5.44
12,CN(CCN)Cc1c[nH]nc1-c1cc(Cl)cc(Cl)c1 [Compound 137],7.58
13,CCN(CC)C(=O)c1ccc(-c2n[nH]cc2CN(C)CCN)cc1 [Compound 143],8.37
14,CN(CCN)Cc1c[nH]nc1-c1ccc(OC2CC2)cc1 [Compound 114],3.2
15,COc1cc(Cl)cc(-c2n[nH]cc2CN(C)CCN)c1 [Compound 127],5.65
16,CCn1ncc(CN(C)CCNC)c1-c1ccc(F)cc1 [Compound 7],26
17,CN(CCN)Cc1c[nH]nc1-c1ccc(C(F)(F)F)c(Cl)c1 [Compound 117],2.3
18,CN(CCN)Cc1c[nH]nc1-c1cccc(Cl)c1 [Compound 122],5.01
19,CN(CCN)Cc1c[nH]nc1-c1ccc(F)c(Cl)c1 [Compound 124],2.22
20,CN(CCN)Cc1n[nH]cc1-c1ccc(C#N)cc1 [Compound 100],7.26
21,CN(CCN)Cc1c[nH]nc1-c1ccc(Cl)cc1F [Compound 132],3.98

# More lines, now with the values ahead:
row,IC50 [µM],Compound
1,9.91,Cc1ccc(-c2n[nH]cc2CN(C)CCN)c(F)c1 [Compound 108]
2,3.14,CN(CCN)Cc1c[nH]nc1-c1ccc(OCC(F)(F)F)cc1 [Compound 96]
3,9.83,CN(CCN)Cc1n[nH]cc1-c1ccc(OC(F)(F)F)cc1 [Compound 105]
4,2.55,Cc1ccc(-c2n[nH]cc2CN(C)CCN)cc1Cl [Compound 126]
5,8.32,CC(O)c1ccc(-c2n[nH]cc2CN(C)CCN)cc1 (centres unmarked) [Compound 115]
6,3.57,Cc1cccc(-c2n[nH]cc2CN(C)CCN)c1 [Compound 131]
7,4.83,COc1cc(-c2n[nH]cc2CN(C)CCN)ccc1F [Compound 142]
8,0.684,CN(CCN)Cc1c[nH]nc1-c1ccc(C2CCOCC2)cc1 [Compound 98]
9,9.6,CN(CCN)Cc1n[nH]cc1-c1ccc(OC2CC2)cc1 [Compound 119]
10,> 50,CCn1cc(CN(C)CCNC)c(-c2ccc(F)cc2)n1 [Compound 8]
11,6.16,CN(CCN)Cc1n[nH]cc1-c1ccc(Cl)cc1 [Compound 102]
12,7.21,Cc1cc(C#N)ccc1-c1n[nH]cc1CN(C)CCN [Compound 110]
13,2.88,CN(CCN)Cc1c[nH]nc1-c1cc(F)cc(Cl)c1 [Compound 121]
14,8,COc1ccc(-c2n[nH]cc2CN(C)CCN)c(F)c1 [Compound 107]
15,3.92,CN(CCN)Cc1c[nH]nc1-c1cccc(Cl)c1F [Compound 123]
16,1.04,CN(CCN)Cc1c[nH]nc1-c1ccc(Cl)c(F)c1 [Compound 118]
17,4.1,Cc1cc(Cl)ccc1-c1n[nH]cc1CN(C)CCN [Compound 133]
